In brackets after ≈: the same amount, converted by molar mass.
Columns and labels:
[1] = Octanol-water partition coefficient, log P of the compound; format: physicochemical
Aspergillus niger = test: Antifungal activity against Aspergillus niger NCIM 1196 by agar diffusion method; format: functional
Candida albicans = test: Antifungal activity against Candida albicans NCIM 3417 by agar diffusion method; format: functional
Pseudomonas aeruginosa = test: Antibacterial activity against Pseudomonas aeruginosa ATCC 10145 by broth dilution technique; format: functional
Staphylococcus aureus = test: Antibacterial activity against Staphylococcus aureus NCIM 2079 by broth dilution technique; format: functional
[2] = tested on: Mycobacterium tuberculosis; test: microbe, parasite or virus in culture; settings: H37Rv
Description: Antimycobacterial activity against Mycobacterium tuberculosis H37Rv by agar double dilution technique

Escherichia coli = test: Antibacterial activity against Escherichia coli NCIM 5051 by broth dilution technique; format: functional
Bacillus subtilis = test: Antibacterial activity against Bacillus subtilis NCIM 2439 by broth dilution technique; format: functional

Structure (SMILES) | logP [1] | MIC (Aspergillus niger) [µg/mL] | MIC (Candida albicans) [µg/mL] | MIC (Pseudomonas aeruginosa) [µg/mL] | MIC (Staphylococcus aureus) [µg/mL] | MIC90 [2] [µM] | MIC (Escherichia coli) [µg/mL] | MIC (Bacillus subtilis) [µg/mL]
Cc1c(NCc2nnc(-c3ccccc3Cl)o2)c(=O)n(-c2ccccc2)n1C | 2.72 | 256 (≈ 647 µM) | 256 (≈ 647 µM) | 8 (≈ 20.2 µM) | 4 (≈ 10.1 µM) | 1.97 (≈ 0.78 µg/mL) | 4 (≈ 10.1 µM) | 4 (≈ 10.1 µM)
Cc1c(NCc2nnc(-c3ccc(Cl)cc3)o2)c(=O)n(-c2ccccc2)n1C | 2.7 | 256 (≈ 647 µM) | 128 (≈ 323 µM) | 8 (≈ 20.2 µM) | 8 (≈ 20.2 µM) | 3.94 (≈ 1.56 µg/mL) | 4 (≈ 10.1 µM) | 8 (≈ 20.2 µM)
Cc1c(NCc2nnc(-c3ccc(N)cc3)o2)c(=O)n(-c2ccccc2)n1C | 1.13 | 128 (≈ 340 µM) | 128 (≈ 340 µM) | 64 (≈ 170 µM) | 16 (≈ 42.5 µM) | 4.15 (≈ 1.56 µg/mL) | 16 (≈ 42.5 µM) | 32 (≈ 85 µM)
Cc1c(NCc2nnc(-c3ccncc3)o2)c(=O)n(-c2ccccc2)n1C | 0.8 | 256 (≈ 706 µM) | 256 (≈ 706 µM) | 32 (≈ 88.3 µM) | 16 (≈ 44.2 µM) | 0.78 (≈ 0.283 µg/mL) | 16 (≈ 44.2 µM) | 16 (≈ 44.2 µM)
Cc1c(NCc2nnc(-c3ccccc3O)o2)c(=O)n(-c2ccccc2)n1C | 1.71 | 8 (≈ 21.2 µM) | 16 (≈ 42.4 µM) | 128 (≈ 339 µM) | 128 (≈ 339 µM) | > 13.2 | 128 (≈ 339 µM) | 64 (≈ 170 µM)
CC(=O)Oc1ccccc1-c1nnc(CNc2c(C)n(C)n(-c3ccccc3)c2=O)o1 | 1.98 | 512 (≈ 1220 µM) | 512 (≈ 1220 µM) | 512 (≈ 1220 µM) | 512 (≈ 1220 µM) | > 12.8 | 256 (≈ 610 µM) | 256 (≈ 610 µM)
Cc1c(NCc2nnc(-c3ccccc3)o2)c(=O)n(-c2ccccc2)n1C | 2.02 | 512 (≈ 1420 µM) | 512 (≈ 1420 µM) | 512 (≈ 1420 µM) | 512 (≈ 1420 µM) | 10 (≈ 3.61 µg/mL) | 512 (≈ 1420 µM) | 512 (≈ 1420 µM)
COc1ccc(-c2nnc(CNc3c(C)n(C)n(-c4ccccc4)c3=O)o2)cc1 | 2.07 | 16 (≈ 40.9 µM) | 32 (≈ 81.8 µM) | > 512 | > 512 | > 12.8 | 256 (≈ 654 µM) | > 512
Cc1ccccc1-c1nnc(CNc2c(C)n(C)n(-c3ccccc3)c2=O)o1 | 2.38 | 8 (≈ 21.3 µM) | 16 (≈ 42.6 µM) | 512 (≈ 1360 µM) | 256 (≈ 682 µM) | > 13.3 | 256 (≈ 682 µM) | 256 (≈ 682 µM)
Cc1cccc(-c2nnc(CNc3c(C)n(C)n(-c4ccccc4)c3=O)o2)c1 | 2.39 | 128 (≈ 341 µM) | 256 (≈ 682 µM) | > 512 | > 512 | > 13.3 | 512 (≈ 1360 µM) | > 512
Cc1ccc(-c2nnc(CNc3c(C)n(C)n(-c4ccccc4)c3=O)o2)cc1 | 2.48 | 4 (≈ 10.7 µM) | 4 (≈ 10.7 µM) | 512 (≈ 1360 µM) | 512 (≈ 1360 µM) | 10 (≈ 3.75 µg/mL) | 256 (≈ 682 µM) | 512 (≈ 1360 µM)
Cc1c(NCc2nnc(Cc3ccccc3)o2)c(=O)n(-c2ccccc2)n1C | 1.64 | 512 (≈ 1360 µM) | 512 (≈ 1360 µM) | 256 (≈ 682 µM) | 256 (≈ 682 µM) | 10 (≈ 3.75 µg/mL) | 256 (≈ 682 µM) | 256 (≈ 682 µM)
Cc1c(NCc2nnc(COc3ccccc3)o2)c(=O)n(-c2ccccc2)n1C | 0.98 | > 512 | 512 (≈ 1310 µM) | 128 (≈ 327 µM) | 128 (≈ 327 µM) | 12.8 (≈ 5 µg/mL) | 64 (≈ 164 µM) | 128 (≈ 327 µM)
Cc1c(NCc2nnc(-c3cccs3)o2)c(=O)n(-c2ccccc2)n1C | 1.9 | 128 (≈ 348 µM) | 256 (≈ 697 µM) | 8 (≈ 21.8 µM) | 8 (≈ 21.8 µM) | 6.81 (≈ 2.5 µg/mL) | 8 (≈ 21.8 µM) | 16 (≈ 43.5 µM)
O=C(O)c1cn(C2CC2)c2cc(N3CCNCC3)c(F)cc2c1=O [CIPROFLOXACIN] | – | – | – | 4 (≈ 12.1 µM) | 4 (≈ 12.1 µM) | – | – | 4 (≈ 12.1 µM)
OC(Cn1cncn1)(Cn1cncn1)c1ccc(F)cc1F [FLUCONAZOLE] | – | 2 (≈ 6.53 µM) | 1 (≈ 3.27 µM) | – | – | – | – | –
NNC(=O)c1ccncc1 [ISONIAZID] | – | – | – | – | – | 0.78 (≈ 0.107 µg/mL) | – | –
